Reference: patent publication US12084472B2 (Ardelyx, Inc., priority 2015, dated 2024)

What follows are molecules tested against T1, human TGR5 (Homo sapiens, UniProt Q8TDU6) (assay: Cell-based TGR5 assay (cAMP generation, HTRF)). Settings: HEK293 cells stably transfected with human TGR5; cAMP by HTRF; 30 minutes at 37° C.; read-out: pEC50 Human TGR5 (converted).
T1 construct: expressed in transfected cells; host or cells: HEK293
T1 sequence (Q8TDU6 1-330): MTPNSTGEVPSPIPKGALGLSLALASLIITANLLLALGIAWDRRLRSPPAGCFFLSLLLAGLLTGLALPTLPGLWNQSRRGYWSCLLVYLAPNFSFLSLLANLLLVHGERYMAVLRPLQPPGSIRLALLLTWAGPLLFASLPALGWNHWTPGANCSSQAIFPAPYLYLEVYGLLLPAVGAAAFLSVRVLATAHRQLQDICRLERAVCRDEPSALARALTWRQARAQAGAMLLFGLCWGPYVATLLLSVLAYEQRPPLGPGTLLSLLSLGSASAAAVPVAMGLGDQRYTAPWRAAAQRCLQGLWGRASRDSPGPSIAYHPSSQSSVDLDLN
Procedure, shortened: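 First, compounds in 3-fold serial dilution were placed in HBSS with 10 mM HEPES pH 7.4 and 0.5 mM IBMX. Next, human TGR5-expressing HEK293 cells were added and incubated 30 min at 37° C. Finally, cAMP was detected by HTRF and pEC50 derived by logistic fitting.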

| Structure (SMILES) | EC50 [nM] |
| --- | --- |
| CC(C)(C)OCc1ccccc1-c1ccncc1C1(NCc2cc(Cl)ccc2Cl)CC1 [Compound I-13, 1-(4-{2-[(tert-butoxy)methyl]phenyl}pyridin-3-yl)-N-[(2,5-dichlorophenyl)methyl]cyclopropan-1-amine] | 126 to 1000 |
| CN(C[C@H](O)[C@@H](O)[C@H](O)[C@H](O)CO)C(=O)CC1(CSc2ccc(Cl)c(COC3(c4cnccc4-c4ccccc4OC4CC4)CC3)c2)CC1 [Compound I-679, 2-[1-({[4-chloro-3-({1-[4-(2-cyclopropoxyphenyl)pyridin-3-yl]cyclopropoxy}methyl)phenyl]sulfanyl}methyl)cyclopropyl]-N-methyl-N-[(2S,3R,4R,5R)-2,3,4,5,6-pentahydroxyhexyl]acetamide] | < 100 |
| O=C1CCCN1CCCN(CCCCSc1ccc(Cl)c(CNC2(c3cnccc3-c3ccccc3OC3CC3)CC2)c1)C(=O)[C@@H](O)[C@@H](O)[C@H](O)[C@@H](O)CO [Compound I-554, (2S,3S,4R,5S)-N-[4-({4-chloro-3-[({1-[4-(2-cyclopropoxyphenyl)pyridin-3-yl]cyclopropyl}amino)methyl]phenyl}sulfanyl)butyl]-2,3,4,5,6-pentahydroxy-N-[3-(2-oxopyrrolidin-1-yl)propyl]hexanamide] | 126 to 1000 |
| Cc1ccc(C(C)CCCCNC(=O)NC[C@H](O)[C@@H](O)[C@H](O)[C@H](O)CO)cc1CNC1(c2cnccc2-c2ccccc2OC2CC2)CC1 (stereo partly drawn) [Compound I-272, 1-(5-{3-[({1-[4-(2-cyclopropoxyphenyl)pyridin-3-yl]cyclopropyl}amino)methyl]-4-methylphenyl}hexyl)-3-[(2S,3R,4R,5R)-2,3,4,5,6-pentahydroxyhexyl]urea] | < 100 |
| Cc1ccc(C(C)CCCC(=O)N(Cc2ccccc2)C[C@H](O)[C@@H](O)[C@H](O)[C@H](O)CO)cc1CNC1(c2cnccc2-c2ccccc2OC2CC2)CC1 (stereo partly drawn) [Compound I-259, N-benzyl-5-(3-(((1-(4-(2-cyclopropoxyphenyl)pyridin-3-yl)cyclopropyl)amino)methyl)-4-methylphenyl)-N-((2S,3R,4R,5R)-2,3,4,5,6-pentahydroxyhexyl) hexanamide] | < 100 |
| Cc1cc(COC2(c3cnccc3-c3ccccc3OC3CC3)CC2)c(Cl)cc1CCCCNC(=O)N[C@@H](C(=O)O)[C@@H](O)[C@H](O)[C@H](O)CO [Compound I-106, (2R,3R,4S,5R)-2-[({4-[5-chloro-4-({1-[4-(2-cyclopropoxyphenyl)pyridin-3-yl]cyclopropoxy}methyl)-2-methylphenyl]butyl}carbamoyl)amino]-3,4,5,6-tetrahydroxyhexanoic acid] | < 100 |
| O=C(NCCCSc1ccc(Cl)c(CNC2(c3cnccc3-c3ccccc3OC3CC3)CC2)c1)NC[C@H](O)[C@@H](O)[C@H](O)[C@H](O)CO [Compound I-622, 1-[3-({4-chloro-3-[({1-[4-(2-cyclopropoxyphenyl)pyridin-3-yl]cyclopropyl}amino)methyl]phenyl}sulfanyl)propyl]-3-[(2S,3R,4R,5R)-2,3,4,5,6-pentahydroxyhexyl]urea] | < 100 |
| Cc1ccc(C(CO)CCCNC(=O)NC[C@H](O)[C@@H](O)[C@H](O)[C@H](O)CO)cc1CNC1(c2cnccc2-c2ccccc2OC2CC2)CC1 (stereo partly drawn) [Compound I-387, 1-(4-{3-[({1-[4-(2-cyclopropoxyphenyl)pyridin-3-yl]cyclopropyl}amino)methyl]-4-methylphenyl}-5-hydroxypentyl)-3-[(2S,3R,4R,5R)-2,3,4,5,6-pentahydroxyhexyl]urea] | 126 to 1000 |
| CC(=O)N(CCCCSc1ccc(Cl)c(COC2(c3cnccc3-c3ccccc3OC3CC3)CC2)c1)C[C@H](O)[C@@H](O)[C@H](O)[C@H](O)CO [Compound I-501, N-(4-{[4-chloro-3-({1-[4-(2-cyclopropoxyphenyl)pyridin-3-yl]cyclopropoxy}methyl)phenyl]sulfanyl}butyl)-N-[(2S,3R,4R,5R)-2,3,4,5,6-pentahydroxyhexyl]acetamide] | < 100 |
| COCCN(CCCCNC(=O)N[C@@H](CO)[C@@H](O)[C@H](O)[C@H](O)CO)S(=O)(=O)c1ccc(Cl)c(COC2(c3cnccc3-c3ccccc3OC3CC3)CC2)c1 [Compound I-416, 1-{4-[N-(2-methoxyethyl)4-chloro-3-({1-[4-(2-cyclopropoxyphenyl)pyridin-3-yl]cyclopropoxy}methyl)benzenesulfonamido]butyl}-3-[(2S,3R,4S,5R)-1,3,4,5,6-pentahydroxyhexan-2-yl]urea] | < 100 |
| CS(=O)(=O)CCCN(CCCSc1ccc(Cl)c(COC2(c3cnccc3-c3ccccc3OC3CC3)CC2)c1)C(=O)[C@@H](O)[C@@H](O)[C@H](O)[C@@H](O)CO [Compound I-558, (2S,3S,4R,5S)-N-(3-{[4-chloro-3-({1-[4-(2-cyclopropoxyphenyl)pyridin-3-yl]cyclopropoxy}methyl)phenyl]sulfanyl}propyl)-2,3,4,5,6-pentahydroxy-N-(3-methanesulfonylpropyl) hexanamide] | 126 to 1000 |
| CSc1ccc(Cl)c(CNC2(c3cnccc3-c3ccccc3OC3CC3)CC2)c1 [Compound I-23, N-{[2-chloro-5-(methylsulfanyl)phenyl]methyl}-1-[4-(2-cyclopropoxyphenyl)pyridin-3-yl]cyclopropan-1-amine] | < 100 |
| Cc1ccc(Cl)cc1CNC1(c2cnccc2-c2ccccc2OC2CC2)CC1 [Compound I-40, N-[(5-chloro-2-methylphenyl)methyl]-1-[4-(2-cyclopropoxyphenyl)pyridin-3-yl]cyclopropan-1-amine] | < 100 |
| COC[C@H](O)CN(C[C@H](O)[C@@H](O)[C@H](O)[C@H](O)CO)C(=O)CCCCc1cc(Cl)c(COC2(c3cnccc3-c3ccccc3OC3CC3)CC2)cc1Cl [Compound I-124, 5-[2,5-dichloro-4-({1-[4-(2-cyclopropoxyphenyl)pyridin-3-yl]cyclopropoxy}methyl)phenyl]-N-[(2R)-2-hydroxy-3-methoxypropyl]-N-[(2S,3R,4R,5R)-2,3,4,5,6-pentahydroxyhexyl]pentanamide] | < 100 |
| CSc1ncc(C)c(CNC2(c3cnccc3-c3ccccc3OC3CC3)CC2)n1 [Compound I-496, 1-[4-(2-Cyclopropoxyphenyl)pyridin-3-yl]-N-[[5-methyl-2-(methylsulfanyl)pyrimidin-4-yl]methyl]cyclopropan-1-amine] | < 100 |
| Cc1ccc(C(C)CCCC(=O)N(CC(=O)N(C)C)C[C@H](O)[C@@H](O)[C@H](O)[C@H](O)CO)cc1CNC1(c2cnccc2-c2ccccc2OC2CC2)CC1 (stereo partly drawn) [Compound I-364, 5-{3-[({1-[4-(2-cyclopropoxyphenyl)pyridin-3-yl]cyclopropyl}amino)methyl]-4-methylphenyl}-N-[(dimethylcarbamoyl)methyl]-N-[(2S,3R,4R,5R)-2,3,4,5,6-pentahydroxyhexyl]hexanamide] | 126 to 1000 |
| O=C([C@@H](O)[C@@H](O)[C@H](O)[C@@H](O)CO)N(CCCCO)CCCSc1ccc(Cl)c(CNC2(c3cnccc3-c3ccccc3OC3CC3)CC2)c1 [Compound I-527, (2S,3S,4R,5S)-N-[3-({4-chloro-3-[({1-[4-(2-cyclopropoxyphenyl)pyridin-3-yl]cyclopropyl}amino)methyl]phenyl}sulfanyl)propyl]-2,3,4,5,6-pentahydroxy-N-(4-hydroxybutyl)hexanamide] | < 100 |
